Here are results for 21 compounds from patent US20230416227A1, “PLASMA KALLIKREIN INHIBITORS” (Merck Sharp & Dohme LLC, priority 2020, published 2023).

The target in this experiment is T1, Human plasma kallikrein (Homo sapiens, UniProt P03952).
T1 construct: yields a heavy chain (371 amino acids) and a light chain (248 amino acids); purchased Enzyme Research Laboratories
Put plainly: Plasma Kallikrein Assay. The class given is biochemical. Conditions: purified Human plasma kallikrein 0.5 nM, substrate Acetyl-K-P-R-AFC, pH 7.4. The procedure: The effectiveness of a compound of the present invention as an inhibitor of plasma kallikrein can be determined using a relevant purified serine protease, and an appropriate synthetic substrate. The rate of hydrolysis of the chromogenic or fluorogenic substrate by the relevant serine protease was measured both in the absence and presence of compounds of the present invention. Assays were conducted at rt or at 37° C. […] A decrease in the rate of fluorescence change in the presence of inhibitor is indicative of enzyme inhibition. Such methods are known to one skilled in the art. The results of this assay are expressed as the half-maximal inhibitory concentrations (IC50), or the inhibitory constant, Ki.
Plasma kallikrein determinations were made in 50 mM HEPES buffer at pH 7.4 containing 150 mM NaCl, 5 mM CaCl2), and 0.1% PEG 8000 (polyethylene glycol; Fisher Scientific). […]
Times required to achieve equilibration between enzyme and inhibitor were determined in control experiments. The reactions were performed under linear progress curve conditions and fluorescence increase measured at 405 Ex/510 Em nm. […] IC50 was determined by inflection point from a four parameter logistic curve fit. Ki was calculated using the Cheng Prusoff equation, Ki=IC50/(1+([S]/Km)).

T1 sequence (P03952 391-638 limits assumed): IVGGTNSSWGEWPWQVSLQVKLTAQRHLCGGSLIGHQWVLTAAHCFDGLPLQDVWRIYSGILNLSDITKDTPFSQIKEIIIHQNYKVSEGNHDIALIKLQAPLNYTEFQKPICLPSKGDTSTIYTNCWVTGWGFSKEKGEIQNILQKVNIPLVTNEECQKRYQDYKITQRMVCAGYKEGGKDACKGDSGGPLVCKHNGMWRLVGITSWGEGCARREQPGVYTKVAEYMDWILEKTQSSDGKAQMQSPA
T1 sequence (P03952 20-390 partner limits assumed): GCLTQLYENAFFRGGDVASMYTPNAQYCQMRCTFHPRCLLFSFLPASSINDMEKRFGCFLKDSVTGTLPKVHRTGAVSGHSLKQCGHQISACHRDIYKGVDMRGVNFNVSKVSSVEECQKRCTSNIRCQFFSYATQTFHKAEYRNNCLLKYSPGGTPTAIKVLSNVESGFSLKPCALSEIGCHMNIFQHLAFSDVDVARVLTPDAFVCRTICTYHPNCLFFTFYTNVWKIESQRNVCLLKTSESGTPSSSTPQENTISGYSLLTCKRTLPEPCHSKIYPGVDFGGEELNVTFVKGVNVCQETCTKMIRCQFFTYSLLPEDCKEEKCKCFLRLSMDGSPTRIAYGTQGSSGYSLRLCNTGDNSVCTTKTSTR

A word on the IC50: it is the midpoint of a concentration-inhibition curve. A lower IC50 goes with higher potency. In the case of `CC1CCN1c1ncc(C(C)n2cc(NC(=O)c3cncc(-c4c(C(F)F)ccc(Cl)c4F)n3)cn2)cn1` (racemic) [Example 100, 6-(3-Chloro-6-(difluoromethyl)-2-fluorophenyl)-N-(1-((R and S)-1-(2-((R and S)-2-methylazetidin-1-yl)pyrimidin-5-yl)ethyl)-1H-pyrazol-4-yl)pyrazine-2-carboxamide], the IC50 is 0.0206 µM.

Consider `CC(c1cnc(N2CCC[C@@H]2C(N)=O)nc1)n1cc(NC(=O)c2cncc(-c3c(C(F)F)ccc(Cl)c3F)n2)cn1` (mixture of isomers) [Example 104, N-(1-((R and S)-1-(2-((R)-2-Carbamoylpyrrolidin-1-yl)pyrimidin-5-yl)ethyl)-1H-pyrazol-4-yl)-6-(3-chloro-6-(difluoromethyl)-2-fluorophenyl)pyrazine-2-carboxamide], for which the IC50 turned out to be 0.0329 µM.

`CC(c1cnc(N2CC3CC3C2)nc1)n1cc(NC(=O)c2nc(-c3c(C(F)F)ccc(Cl)c3F)cnc2N)cn1` (single isomer, unassigned) [Example 33, N-(1-((1S or 1R)-1-(2-(3-azabicyclo[3.1.0]hexan-3-yl)pyrimidin-5-yl)ethyl)-1H-pyrazol-4-yl)-3-amino-6-(3-chloro-6-(difluoromethyl)-2-fluorophenyl)pyrazine-2-carboxamide] had a half-inhibitory concentration (IC50) of 0.0265 µM.

As to `O=C(Nc1cnn(C2CCc3nc(N4CCC4)ccc32)c1)c1cncc(-c2c(C(F)F)ccc(Cl)c2F)n1` (single isomer, unassigned) [Example 35, (S or R)-N-(1-(2-(azetidin-1-yl)-6,7-dihydro-5H-cyclopenta[b]pyridin-5-yl)-1H-pyrazol-4-yl)-6-(3-chloro-6-(difluoromethyl)-2-fluorophenyl)pyrazine-2-carboxamide], the half-maximal inhibitory concentration (IC50) was found to be 0.0332 µM.

On to `CC1C2CC2CN1c1ncc(C(CO)n2cc(NC(=O)c3cncc(-c4c(C(F)F)ccc(Cl)c4F)n3)cn2)cn1` (single isomer, unassigned) [Example 48, 6-(3-Chloro-6-(difluoromethyl)-2-fluorophenyl)-N-(1-((S or R)-2-hydroxy-1-(2-((1S,2R,5R or 1R, 2S, 5S)-2-methyl-3-azabicyclo[3.1.0]hexan-3-yl)pyrimidin-5-yl)ethyl)-1H-pyrazol-4-yl)pyrazine-2-carboxamide], for which the midpoint of inhibition, the IC50, lay at 0.73 µM.

Consider `CC1C2CC2CN1c1ncc(C(CO)n2cc(NC(=O)c3cncc(-c4c(C(F)F)ccc(Cl)c4F)n3)cn2)cn1` (single isomer, unassigned) [Example 49, 6-(3-Chloro-6-(difluoromethyl)-2-fluorophenyl)-N-(1-((R or S)-2-hydroxy-1-(2-((1S,2R,5R or 1R,2S, 5S)-2-methyl-3-azabicyclo[3.1.0]hexan-3-yl)pyrimidin-5-yl)ethyl)-1H-pyrazol-4-yl)pyrazine-2-carboxamide], for which the IC50 came to 0.0176 µM.

`CC1C2CC2CN1c1ncc(C(CO)n2cc(NC(=O)c3cncc(-c4c(C(F)F)ccc(Cl)c4F)n3)cn2)cn1` (single isomer, unassigned) [Example 50, 6-(3-Chloro-6-(difluoromethyl)-2-fluorophenyl)-N-(1-((S or R)-2-hydroxy-1-(2-((1R,2S,5S or 1S,2R, 5R)-2-methyl-3-azabicyclo[3.1.0]hexan-3-yl)pyrimidin-5-yl)ethyl)-1H-pyrazol-4-yl)pyrazine-2-carboxamide] gave an IC50 of 1.12 µM.

The compound `CC1C2CC2CN1c1ncc(C(CO)n2cc(NC(=O)c3cncc(-c4c(C(F)F)ccc(Cl)c4F)n3)cn2)cn1` (single isomer, unassigned) [Example 51, 6-(3-Chloro-6-(difluoromethyl)-2-fluorophenyl)-N-(1-((R or S)-2-hydroxy-1-(2-((1R,2S,5S or 1S,2R, 5R)-2-methyl-3-azabicyclo[3.1.0]hexan-3-yl)pyrimidin-5-yl)ethyl)-1H-pyrazol-4-yl)pyrazine-2-carboxamide] displayed an IC50 of 3.77 µM.

In turn, `Cc1cc(N2CCC2)ncc1[C@@H](C)n1cc(NC(=O)c2cncc(-c3c(C(F)F)ccc(Cl)c3F)n2)cn1` (single isomer, unassigned) [Example 67] showed an IC50 of 0.153 µM. Against the preceding compound, the IC50 is about 25-fold lower.

Consider `C[C@@H](c1cnc(N2C[C@@H]3C[C@@H]3[C@@H]2CO)nc1)n1cc(NC(=O)c2cncc(-c3c(C(F)F)ccc(Cl)c3F)n2)cn1` (single isomer, unassigned) [Example 86, 6-(3-Chloro-6-(difluoromethyl)-2-fluorophenyl)-N-(1-((S or R)-1-(2-((1S,2R,5R or 1R,2S,5S)-2-(hydroxymethyl)-3-azabicyclo[3.1.0]hexan-3-yl)pyrimidin-5-yl)ethyl)-1H-pyrazol-4-yl)pyrazine-2-carboxamide], for which the IC50 turned out to be 0.0133 µM.

With `O=C(Nc1cnn(Cc2cnc(N3CCC4OCCC43)nc2)c1)c1cncc(-c2c(C(F)F)ccc(Cl)c2F)n1` (single isomer, unassigned) [Example 103, 6-(3-Chloro-6-(difluoromethyl)-2-fluorophenyl)-N-(1-((2-((3aS,6aS or 3aR,6aR)-hexahydro-4H-furo[3,2-b]pyrrol-4-yl)pyrimidin-5-yl)methyl)-1H-pyrazol-4-yl)pyrazine-2-carboxamide], the IC50 was 0.0313 µM.

`CC(C)(O)CC1CCCN1c1ncc(Cn2cc(NC(=O)c3cncc(-c4c(C(F)F)ccc(Cl)c4F)n3)cn2)cn1` (single isomer, unassigned) [Example 110, (S or R)-6-(3-Chloro-6-(difluoromethyl)-2-fluorophenyl)-N-(1-((2-(2-(2-hydroxy-2-methylpropyl)pyrrolidin-1-yl)pyrimidin-5-yl)methyl)-1H-pyrazol-4-yl)pyrazine-2-carboxamide] showed an IC50 of 0.0462 µM.

The compound `O=C(Nc1cnn(Cc2cnc(N3CCCC3CC3(O)CC3)nc2)c1)c1cncc(-c2c(C(F)F)ccc(Cl)c2F)n1` (single isomer, unassigned) [Example 112, (S or R)-6-(3-Chloro-6-(difluoromethyl)-2-fluorophenyl)-N-(1-((2-(2-((1-hydroxycyclopropyl)methyl)pyrrolidin-1-yl)pyrimidin-5-yl)methyl)-1H-pyrazol-4-yl)pyrazine-2-carboxamide] returned an IC50 of 0.0492 µM.

Turning to `O=C(Nc1cnn(Cc2ccc(N3CCC4OCCC43)nc2)c1)c1cncc(-c2c(C(F)F)ccc(Cl)c2F)n1` (single isomer, unassigned) [Example 122, 6-(3-Chloro-6-(difluoromethyl)-2-fluorophenyl)-N-(1-((6-((3aR,6aR or 3aS,6aS)-hexahydro-4H-furo[3,2-b]pyrrol-4-yl)pyridin-3-yl)methyl)-1H-pyrazol-4-yl)pyrazine-2-carboxamide], half-maximal inhibition (IC50) was put at 0.0195 µM.

Regarding `CC(N)C1CCCN1c1ncc(Cn2cc(NC(=O)c3cncc(-c4c(C(F)F)ccc(Cl)c4F)n3)cn2)cn1` (single isomer, unassigned) [Example 156, N-(1-((2-(2-(1-Aminoethyl)pyrrolidin-1-yl)pyrimidin-5-yl)methyl)-1H-pyrazol-4-yl)-6-(3-chloro-6-(difluoromethyl)-2-fluorophenyl)pyrazine-2-carboxamide], 0.0073 µM corresponded to half-maximal inhibition (IC50).

Turning to `CC(N)C1CCCN1c1ncc(Cn2cc(NC(=O)c3cncc(-c4c(C(F)F)ccc(Cl)c4F)n3)cn2)cn1` (single isomer, unassigned) [Example 160, N-(1-((2-(2-(1-Aminoethyl)pyrrolidin-1-yl)pyrimidin-5-yl)methyl)-1H-pyrazol-4-yl)-6-(3-chloro-6-(difluoromethyl)-2-fluorophenyl)pyrazine-2-carboxamide], the IC50 is 0.0429 µM.

In the case of `C[C@H](c1cnc(N2C[C@H]3C[C@H]3[C@H]2C#N)nc1)n1cc(NC(=O)c2cncc(-c3c(C(F)F)ccc(Cl)c3F)n2)cn1` (single isomer, unassigned) [Example 196], it took 0.0047 µM to reach half-maximal inhibition (IC50).

Consider `CC(c1cnc(N2CC3CC3C2C#N)nc1)n1cc(NC(=O)c2cncc(-c3c(C(F)F)ccc(Cl)c3F)n2)cn1` (single isomer, unassigned) [Example 197], for which the IC50 was 0.412 µM.

The compound `CC(c1cnc(N2CC3CC3C2C#N)nc1)n1cc(NC(=O)c2cncc(-c3c(C(F)F)ccc(Cl)c3F)n2)cn1` (single isomer, unassigned) [Example 198] yielded an IC50 of 0.189 µM.

For `CC(c1cnc(N2C[C@H]3C[C@H]3C2C(=O)N(C)C)nc1)n1cc(NC(=O)c2cncc(-c3c(C(F)F)ccc(Cl)c3F)n2)cn1` (single isomer, unassigned) [Example 201, (1R,2S,5S or 1S,2R,5R)-3-(5-((S or R)-1-(4-(6-(3-Chloro-6-(difluoromethyl)-2-fluorophenyl)pyrazine-2-carboxamido)-1H-pyrazol-1-yl)ethyl)pyrimidin-2-yl)-N,N-dimethyl-3-azabicyclo[3.1.0]hexane-2-carboxamide], the IC50 amounted to 0.0062 µM.

The compound `CC(c1cnc(N2C[C@H]3C[C@H]3C2C(=O)N(C)C)nc1)n1cc(NC(=O)c2cncc(-c3c(C(F)F)ccc(Cl)c3F)n2)cn1` (single isomer, unassigned) [Example 203, (1R,2S,5S or 1S,2R,5R)-3-(5-((S or R)-1-(4-(6-(3-Chloro-6-(difluoromethyl)-2-fluorophenyl)pyrazine-2-carboxamido)-1H-pyrazol-1-yl)ethyl)pyrimidin-2-yl)-N,N-dimethyl-3-azabicyclo[3.1.0]hexane-2-carboxamide] returned an IC50 of 0.0778 µM.
